How the values were obtained:
Test in all cases: biochemical
[1] = molecular target: PIK3CB/PIK3R1 (p110 beta/p85 alpha) (Homo sapiens, UniProt P42338); conditions: read-out: % inhibition mean (Adapta)
[2] = molecular target: PIK3CA/PIK3R1 (p110 alpha/p85 alpha) (Homo sapiens, UniProt P42336); conditions: read-out: % inhibition mean (Adapta)
IRAK1 = IRAK1 (Homo sapiens, UniProt P51617); conditions: read-out: % inhibition mean (Adapta)
PIK3C2G (PI3K-C2 gamma) = PIK3C2G (PI3K-C2 gamma) (Homo sapiens, UniProt O75747); conditions: read-out: % inhibition mean (Adapta)
CDK9/cyclin T1 = CDK9/cyclin T1 (Homo sapiens, UniProt P50750); conditions: read-out: % inhibition mean (Adapta)
[3] = molecular target: PIK3CD/PIK3R1 (p110 delta/p85 alpha) (Homo sapiens, UniProt O00329); conditions: read-out: % inhibition mean (Adapta)
CDK7/cyclin H/MNAT1 = CDK7/cyclin H/MNAT1 (Homo sapiens, UniProt P50613); conditions: read-out: % inhibition mean (Adapta)
LRRK2 FL = LRRK2 FL (Homo sapiens, UniProt Q5S007); conditions: read-out: % inhibition mean (Adapta)
DDR2 T654M = DDR2 T654M (Homo sapiens, UniProt Q16832, T654M); conditions: read-out: % inhibition mean (Lanthascreen)
KIT Y823D = KIT Y823D (Homo sapiens, UniProt P10721, Y823D); conditions: read-out: % inhibition mean (Lanthascreen)
STK38 (NDR) = STK38 (NDR) (Homo sapiens, UniProt Q15208); conditions: read-out: % inhibition mean (Lanthascreen)
MAP3K2 (MEKK2) = MAP3K2 (MEKK2) (Homo sapiens, UniProt Q9Y2U5); conditions: read-out: % inhibition mean (Lanthascreen)
CLK4 = CLK4 (Homo sapiens, UniProt Q9HAZ1); conditions: read-out: % inhibition mean (Lanthascreen)
ALK C1156Y = ALK C1156Y (Homo sapiens, UniProt Q9UM73, C1156Y); conditions: read-out: % inhibition mean (Lanthascreen)
RIPK3 = RIPK3 (Homo sapiens, UniProt Q9Y572); conditions: read-out: % inhibition mean (Lanthascreen)
AMPK (A1/B1/G2) = AMPK (A1/B1/G2) (Homo sapiens, UniProt Q13131); conditions: read-out: % inhibition mean (Lanthascreen)
GRK1 = GRK1 (Homo sapiens, UniProt Q15835); conditions: read-out: % inhibition mean (Lanthascreen)
AMPK (A2/B2/G2) = AMPK (A2/B2/G2) (Homo sapiens, UniProt P54646); conditions: read-out: % inhibition mean (Lanthascreen)
ABL1 Q252H = ABL1 Q252H (Homo sapiens, UniProt P00519, Q252H); conditions: read-out: % inhibition mean (Lanthascreen)
TEC = TEC (Homo sapiens, UniProt P42680); conditions: read-out: % inhibition mean (Lanthascreen)
STK32C (YANK3) = STK32C (YANK3) (Homo sapiens, UniProt Q86UX6); conditions: read-out: % inhibition mean (Lanthascreen)
TESK2 = TESK2 (Homo sapiens, UniProt Q96S53); conditions: read-out: % inhibition mean (Lanthascreen)
AMPK (A2/B2/G1) = AMPK (A2/B2/G1) (Homo sapiens, UniProt P54646); conditions: read-out: % inhibition mean (Lanthascreen)
TLK1 = TLK1 (Homo sapiens, UniProt Q9UKI8); conditions: read-out: % inhibition mean (Lanthascreen)
ADCK3 = ADCK3 (Homo sapiens, UniProt Q8NI60); conditions: read-out: % inhibition mean (Lanthascreen)
WNK3 = WNK3 (Homo sapiens, UniProt Q9BYP7); conditions: read-out: % inhibition mean (Lanthascreen)
ABL1 M351T = ABL1 M351T (Homo sapiens, UniProt P00519, M351T); conditions: read-out: % inhibition mean (Lanthascreen)
ERN2 = ERN2 (Homo sapiens, UniProt Q76MJ5); conditions: read-out: % inhibition mean (Lanthascreen)

IRAK1, sequence (P51617 whole entry): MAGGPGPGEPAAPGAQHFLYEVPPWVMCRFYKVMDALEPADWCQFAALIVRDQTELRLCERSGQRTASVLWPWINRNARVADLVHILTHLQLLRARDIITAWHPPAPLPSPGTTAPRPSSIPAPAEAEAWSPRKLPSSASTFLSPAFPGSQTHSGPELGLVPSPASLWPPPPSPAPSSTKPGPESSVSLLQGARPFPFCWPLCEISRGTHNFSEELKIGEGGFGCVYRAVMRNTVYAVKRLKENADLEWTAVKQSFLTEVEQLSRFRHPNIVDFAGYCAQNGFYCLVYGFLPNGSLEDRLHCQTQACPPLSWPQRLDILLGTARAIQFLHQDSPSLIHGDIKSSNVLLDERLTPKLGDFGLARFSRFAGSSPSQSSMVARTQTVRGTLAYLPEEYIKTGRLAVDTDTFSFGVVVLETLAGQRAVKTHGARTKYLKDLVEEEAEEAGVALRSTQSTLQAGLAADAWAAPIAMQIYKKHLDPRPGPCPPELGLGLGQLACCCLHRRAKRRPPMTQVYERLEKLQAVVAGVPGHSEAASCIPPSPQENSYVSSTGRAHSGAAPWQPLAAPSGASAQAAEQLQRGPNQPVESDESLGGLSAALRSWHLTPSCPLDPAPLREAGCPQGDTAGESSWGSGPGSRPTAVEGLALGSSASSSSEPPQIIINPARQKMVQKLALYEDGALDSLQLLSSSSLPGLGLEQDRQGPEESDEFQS
CDK9/cyclin T1, sequence (P50750 whole entry): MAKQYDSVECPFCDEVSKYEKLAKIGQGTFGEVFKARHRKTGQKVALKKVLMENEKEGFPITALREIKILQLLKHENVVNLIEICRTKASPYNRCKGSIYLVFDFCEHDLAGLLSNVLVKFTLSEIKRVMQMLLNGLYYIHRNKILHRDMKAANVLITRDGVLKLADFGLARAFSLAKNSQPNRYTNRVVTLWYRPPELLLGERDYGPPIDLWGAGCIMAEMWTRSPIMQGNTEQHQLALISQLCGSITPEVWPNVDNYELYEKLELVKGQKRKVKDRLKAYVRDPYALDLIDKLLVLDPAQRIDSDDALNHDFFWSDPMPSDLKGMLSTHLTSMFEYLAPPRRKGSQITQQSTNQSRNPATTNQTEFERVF
CDK9/cyclin T1, sequence (O60563 whole entry partner): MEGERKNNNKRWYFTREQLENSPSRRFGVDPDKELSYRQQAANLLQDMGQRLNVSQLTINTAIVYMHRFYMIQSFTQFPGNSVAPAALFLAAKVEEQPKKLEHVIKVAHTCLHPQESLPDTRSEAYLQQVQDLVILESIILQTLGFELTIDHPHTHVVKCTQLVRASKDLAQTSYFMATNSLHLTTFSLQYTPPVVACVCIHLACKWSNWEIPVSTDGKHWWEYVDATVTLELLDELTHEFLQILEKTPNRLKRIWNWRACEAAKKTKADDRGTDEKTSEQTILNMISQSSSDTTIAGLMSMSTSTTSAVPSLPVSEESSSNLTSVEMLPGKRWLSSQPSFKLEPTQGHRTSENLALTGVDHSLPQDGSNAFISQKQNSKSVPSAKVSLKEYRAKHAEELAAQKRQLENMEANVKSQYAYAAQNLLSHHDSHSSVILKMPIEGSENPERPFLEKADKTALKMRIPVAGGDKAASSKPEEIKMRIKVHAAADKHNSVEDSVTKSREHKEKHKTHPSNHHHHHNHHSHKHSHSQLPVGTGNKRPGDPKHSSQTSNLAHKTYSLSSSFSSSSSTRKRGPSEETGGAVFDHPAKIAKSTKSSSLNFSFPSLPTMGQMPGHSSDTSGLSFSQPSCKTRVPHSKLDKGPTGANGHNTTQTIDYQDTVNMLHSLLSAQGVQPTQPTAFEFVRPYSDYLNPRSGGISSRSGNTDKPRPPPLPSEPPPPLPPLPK
CLK4, sequence (Q9HAZ1 whole entry): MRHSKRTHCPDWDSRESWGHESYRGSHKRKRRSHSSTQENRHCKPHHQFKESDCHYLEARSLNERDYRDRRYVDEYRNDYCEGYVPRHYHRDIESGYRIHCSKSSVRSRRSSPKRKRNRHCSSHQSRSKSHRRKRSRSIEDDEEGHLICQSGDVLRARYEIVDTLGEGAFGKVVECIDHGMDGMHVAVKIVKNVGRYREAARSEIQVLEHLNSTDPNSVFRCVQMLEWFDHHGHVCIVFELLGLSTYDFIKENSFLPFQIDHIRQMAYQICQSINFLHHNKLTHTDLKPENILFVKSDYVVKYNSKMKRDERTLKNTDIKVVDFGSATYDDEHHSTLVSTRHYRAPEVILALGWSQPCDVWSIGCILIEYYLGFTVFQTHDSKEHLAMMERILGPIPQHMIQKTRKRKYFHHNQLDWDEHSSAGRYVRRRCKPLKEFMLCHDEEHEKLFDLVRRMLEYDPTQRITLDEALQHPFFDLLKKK
PIK3CB/PIK3R1 (p110 beta/p85 alpha), sequence (P42338 whole entry): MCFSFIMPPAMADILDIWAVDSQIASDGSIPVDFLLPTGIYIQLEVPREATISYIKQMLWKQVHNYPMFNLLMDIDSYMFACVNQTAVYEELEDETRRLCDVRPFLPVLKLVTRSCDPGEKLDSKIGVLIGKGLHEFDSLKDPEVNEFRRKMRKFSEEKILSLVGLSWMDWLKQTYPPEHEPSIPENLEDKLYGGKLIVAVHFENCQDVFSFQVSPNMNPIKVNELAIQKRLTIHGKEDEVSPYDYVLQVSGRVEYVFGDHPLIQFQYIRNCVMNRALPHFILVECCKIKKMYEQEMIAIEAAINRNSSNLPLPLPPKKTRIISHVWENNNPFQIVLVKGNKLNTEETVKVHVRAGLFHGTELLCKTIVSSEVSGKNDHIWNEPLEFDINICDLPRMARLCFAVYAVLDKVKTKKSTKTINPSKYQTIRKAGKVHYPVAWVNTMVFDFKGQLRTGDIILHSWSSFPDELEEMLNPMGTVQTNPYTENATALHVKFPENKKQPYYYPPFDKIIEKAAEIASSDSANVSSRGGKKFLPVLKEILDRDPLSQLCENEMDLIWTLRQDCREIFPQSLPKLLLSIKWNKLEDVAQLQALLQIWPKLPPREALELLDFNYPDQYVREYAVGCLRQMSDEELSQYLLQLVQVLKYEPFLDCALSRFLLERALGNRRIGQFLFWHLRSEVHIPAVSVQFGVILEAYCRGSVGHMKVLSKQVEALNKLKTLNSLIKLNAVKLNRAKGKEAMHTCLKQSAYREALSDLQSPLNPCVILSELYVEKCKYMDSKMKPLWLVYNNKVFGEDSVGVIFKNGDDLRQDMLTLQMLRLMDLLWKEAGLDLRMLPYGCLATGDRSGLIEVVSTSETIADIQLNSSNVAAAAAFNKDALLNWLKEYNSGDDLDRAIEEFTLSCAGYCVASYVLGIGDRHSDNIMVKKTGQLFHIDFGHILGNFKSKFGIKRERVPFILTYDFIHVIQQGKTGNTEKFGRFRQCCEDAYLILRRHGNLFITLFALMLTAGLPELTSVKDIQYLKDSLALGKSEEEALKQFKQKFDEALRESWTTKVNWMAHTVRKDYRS
PIK3CB/PIK3R1 (p110 beta/p85 alpha), sequence (P27986 whole entry partner): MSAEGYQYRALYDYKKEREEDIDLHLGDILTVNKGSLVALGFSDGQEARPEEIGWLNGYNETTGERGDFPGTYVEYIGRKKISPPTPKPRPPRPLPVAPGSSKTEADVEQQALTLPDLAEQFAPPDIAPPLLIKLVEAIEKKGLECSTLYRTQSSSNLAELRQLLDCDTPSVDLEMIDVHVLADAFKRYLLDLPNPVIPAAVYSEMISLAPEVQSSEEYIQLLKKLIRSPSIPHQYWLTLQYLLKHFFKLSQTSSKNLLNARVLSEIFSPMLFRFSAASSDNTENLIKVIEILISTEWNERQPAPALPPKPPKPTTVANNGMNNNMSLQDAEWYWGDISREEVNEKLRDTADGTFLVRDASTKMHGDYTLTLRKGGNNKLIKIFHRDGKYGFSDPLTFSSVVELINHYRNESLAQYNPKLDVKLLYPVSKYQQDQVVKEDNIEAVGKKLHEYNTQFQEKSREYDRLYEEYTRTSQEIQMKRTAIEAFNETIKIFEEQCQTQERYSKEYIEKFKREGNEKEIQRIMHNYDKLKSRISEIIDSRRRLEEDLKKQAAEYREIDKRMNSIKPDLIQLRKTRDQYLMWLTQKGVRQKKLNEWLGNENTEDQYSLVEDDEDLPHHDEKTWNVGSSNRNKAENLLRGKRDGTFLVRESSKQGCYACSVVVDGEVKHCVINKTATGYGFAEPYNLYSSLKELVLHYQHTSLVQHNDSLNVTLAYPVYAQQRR
KIT Y823D, sequence (P10721 whole entry Y823D): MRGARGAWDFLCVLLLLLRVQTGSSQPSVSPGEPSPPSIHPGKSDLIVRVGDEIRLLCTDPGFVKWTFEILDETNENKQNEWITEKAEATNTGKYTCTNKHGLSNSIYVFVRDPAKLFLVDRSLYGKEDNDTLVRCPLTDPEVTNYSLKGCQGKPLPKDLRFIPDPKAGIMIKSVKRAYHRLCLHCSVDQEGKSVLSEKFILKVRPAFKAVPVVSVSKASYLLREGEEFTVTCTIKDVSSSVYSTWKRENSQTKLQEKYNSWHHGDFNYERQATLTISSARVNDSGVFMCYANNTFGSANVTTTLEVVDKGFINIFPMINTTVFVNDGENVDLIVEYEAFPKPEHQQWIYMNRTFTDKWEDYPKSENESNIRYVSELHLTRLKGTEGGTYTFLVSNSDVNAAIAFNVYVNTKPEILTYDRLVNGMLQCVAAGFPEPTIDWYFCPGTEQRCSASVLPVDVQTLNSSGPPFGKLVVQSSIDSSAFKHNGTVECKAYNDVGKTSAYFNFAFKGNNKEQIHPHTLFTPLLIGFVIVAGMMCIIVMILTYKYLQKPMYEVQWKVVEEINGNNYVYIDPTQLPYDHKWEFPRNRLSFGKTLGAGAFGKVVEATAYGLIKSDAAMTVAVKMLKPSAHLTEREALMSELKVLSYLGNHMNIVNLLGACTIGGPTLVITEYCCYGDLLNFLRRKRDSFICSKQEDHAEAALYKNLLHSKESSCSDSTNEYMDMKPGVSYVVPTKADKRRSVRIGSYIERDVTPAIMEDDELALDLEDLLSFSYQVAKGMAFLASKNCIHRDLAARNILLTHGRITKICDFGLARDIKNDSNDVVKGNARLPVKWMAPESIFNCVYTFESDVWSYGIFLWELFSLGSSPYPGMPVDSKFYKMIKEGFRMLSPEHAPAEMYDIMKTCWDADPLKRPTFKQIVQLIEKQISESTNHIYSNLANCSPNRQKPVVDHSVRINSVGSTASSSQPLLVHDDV

COc1ccc2nc3cc(Cl)ccc3c(Nc3cc(CN4CCCC4)c(O)c(CN4CCCC4)c3)c2n1 [Pyronaridine, 4-[(7-Chloro-2-methoxybenzo[b][1,5]naphthyridin-10-yl)amino]-2,6-bis(1-pyrrolidinylmethyl)phenol phosphate (1:4)]
inhibition at 1 µM [1]: -11%
inhibition at 1 µM [2]: 7%
inhibition at 1 µM (IRAK1): -4%
inhibition at 1 µM (PIK3C2G (PI3K-C2 gamma)): 3%
inhibition at 1 µM (CDK9/cyclin T1): 5%
inhibition at 1 µM [3]: 9%
inhibition at 1 µM (CDK7/cyclin H/MNAT1): -13%
inhibition at 1 µM (LRRK2 FL): -4%
inhibition at 1 µM (DDR2 T654M): -11%
inhibition at 1 µM (KIT Y823D): -4%
inhibition at 1 µM (STK38 (NDR)): 2%
inhibition at 1 µM (MAP3K2 (MEKK2)): 7%
inhibition at 1 µM (CLK4): 6%
inhibition at 1 µM (ALK C1156Y): -2%
inhibition at 1 µM (RIPK3): -7%
inhibition at 1 µM (AMPK (A1/B1/G2)): -7%
inhibition at 1 µM (GRK1): 1%
inhibition at 1 µM (AMPK (A2/B2/G2)): 3%
inhibition at 1 µM (ABL1 Q252H): -10%
inhibition at 1 µM (TEC): 7%
inhibition at 1 µM (STK32C (YANK3)): 1%
inhibition at 1 µM (TESK2): -3%
inhibition at 1 µM (AMPK (A2/B2/G1)): 6%
inhibition at 1 µM (TLK1): 12%
inhibition at 1 µM (ADCK3): -16%
inhibition at 1 µM (WNK3): 7%
inhibition at 1 µM (ABL1 M351T): 8%
inhibition at 1 µM (ERN2): 6%
